Molecules are shown by their SMILES. In brackets after ≈: the same amount, converted by molar mass.

The first test deals with 30 strains of coliform bacilli collected from the living body of humans. As to the kind of experiment: MIC50/MIC70 against 30 strains of coliform bacilli. The class given is cell-based. As to conditions: 70% of the 30 strains. On the procedure: The MIC of ampicillin as combined with the present compound (10 μg/ml) was measured against the same bacteria. In the method, the bacteria cultivated in Mueller Hinton Broth (product of DIFCO) and diluted to 10^7 CFU/ml were inoculated into the same medium containing ampicillin and the present compound in a specific concentration, and incubated at 37° C. for 20 hours. […] The bacteria as used in the test were those capable of producing β-lactamase, among which the bacteria marked * in the table are those collected from the living body of human hosts and the others are a stock culture.
(2) Effects by antibiotics as combined with the present compound
The compounds of the present invention, ampicillin, mecillinam, piperacillin and cephalexin, each singly used, were also tested for minimal inhibitory concentration against 30 strains of coliform bacilli collected from the living body of humans. The MIC of each antibiotic as combined with the present compound (10 μg/ml) was likewise measured. Table 3 to 6 indicate the results in which MIC50 and MIC70 indicate the minimal inhibitory concentration for inhibiting the growth of 50% and 70% respectively of the strains. The MICs of the present compounds singly used were all more than 25 μg/ml.
On to `CC1(C)S[C@@H]2[C@H](NC(=O)[C@H](N)c3ccccc3)C(=O)N2[C@H]1C(=O)O` [Ampicillin, ampicillin, reference compound], for which the “MIC70, ampicillin singly used” value was 400 µg/mL (≈ 1140 µM).

The test is the same for the next values; noted with them: 70% of the 30 strains; present compound 10 μg/ml.
On to `CCOC(=O)c1cn(C[C@@]2(C)[C@H](C(=O)O)N3C(=O)C[C@H]3S2(=O)=O)nn1` [Compound 7, sodium 2β-(4-ethoxycarbonyl-1,2,3-triazol-1-yl)methyl-2α-methylpenam-3α-carboxylate-1,1-dioxide], for which the “MIC70 of ampicillin combined with present compound” value (“MIC70 of ampicillin combined” below) is 50 µg/mL, the “MIC70 of cephalexin combined with present compound” value (from here on “MIC70 of cephalexin combined”) was 100 µg/mL, the “MIC70 of mecillinam combined with present compound” value (from here on “MIC70 of mecillinam combined”) turned out to be 0.39 µg/mL and the “MIC70 of piperacillin combined with present compound” value (shortened to “MIC70 of piperacillin combined”) amounted to 6.25 µg/mL.

On to `CCOC(=O)c1cnnn1C[C@@]1(C)[C@H](C(=O)O)N2C(=O)C[C@H]2S1(=O)=O` [Compound 11, sodium 2β-(5-ethoxycarbonyl-1,2,3-triazol-1-yl)methyl-2α-methylpenam-3α-carboxylate-1,1-dioxide], for which the “MIC70 of ampicillin combined” value was 100 µg/mL, the “MIC70 of cephalexin combined” value stood at 100 µg/mL, the “MIC70 of mecillinam combined” value was found to be 0.39 µg/mL and the “MIC70 of piperacillin combined” value amounted to 25 µg/mL.

Take `C[C@]1(Cn2cc(C(=O)O)nn2)[C@H](C(=O)O)N2C(=O)C[C@H]2S1(=O)=O` [Compound 16, dipotassium 2β-(4-carboxy-1,2,3-triazol-1-yl)methyl-2α-methylpenam-3α-carboxylate-1,1-dioxide]: the “MIC70 of ampicillin combined” value stood at 6.25 µg/mL, the “MIC70 of cephalexin combined” value was found to be 25 µg/mL, the “MIC70 of mecillinam combined” value was determined as 0.1 µg/mL and the “MIC70 of piperacillin combined” value was 3.13 µg/mL.

Turning to `C[C@]1(Cn2nncc2C(=O)O)[C@H](C(=O)O)N2C(=O)C[C@H]2S1(=O)=O` [Compound 17, dipotassium 2β-(5-carboxy-1,2,3-triazol-1-yl)methyl-2α-methylpenam-3α-carboxylate-1,1-dioxide], the “MIC70 of ampicillin combined” value was 100 µg/mL, the “MIC70 of mecillinam combined” value came to 0.39 µg/mL and the “MIC70 of piperacillin combined” value came to 50 µg/mL.

On to `C[C@]1(Cn2ccnn2)[C@H](C(=O)O)N2C(=O)C[C@H]2S1(=O)=O` [Compound 22, sodium 2α-methyl-2β-(1,2,3-triazol-1-yl)methylpenam-3α-carboxylate-1,1-dioxide], for which the “MIC70 of ampicillin combined” value is 6.25 µg/mL, the “MIC70 of cephalexin combined” value worked out at 50 µg/mL, the “MIC70 of mecillinam combined” value came out at 0.2 µg/mL and the “MIC70 of piperacillin combined” value stood at 1.56 µg/mL.

Source of the values: patent publication US4562073A, “Penicillin derivatives” (Taiho Pharmaceutical Company Limited, priority 1982, dated 1985).
